# In ChEMBL document CHEMBL5729557, “5-membered heteroaryl carboxamide compounds for treatment of HBV” (2023):
# pEC50: −log10 of the molar value. “And” between values parts separate entries of the source, which are not always exact repeats. Equal entries are not always repeated.
# Test: Assay Measuring Activity of Test Compounds on Viral Production from HepAD38 Cells: HepAD38 cells grown in a T-150 flask (Corning, cat #: 430825) with Growth Medium (DMEM/F12 (1:1) (Hyclone, cat #: SH30023.02), 1× Pen/Strep (Invitrogen, cat #: 15140-122), 10% FBS (Tissue Culture Biologics, cat #: 101), 250 μg/mL G418 (Alfa Aesar, cat #: J62671), 1 μg/mL Tetracycline (Teknova, cat #: T3320)) were detached with 0.25% trypsin-EDTA to (Invitrogen, cat #: 25200-056). Tetracycline-free treatment medium (15 mL DMEM/F12 (1:1) 1× Pen/step, with 2% FBS, Tet-system approved (Clontech, cat #: 631106) were then added to mix, transferred into a 50 ml conical tube (Falcon, cat #: 21008-918,) and spun at 1300 rpm for 5 min. Pelleted cells were then re-suspended/washed with 50 mL of 1×DPBS (Invitrogen, cat #: 14190-136) 2 times and 50 mL treatment medium twice. HepAD38 cells were then re-suspended with 10 mL of treatment medium, syringed and counted. Wells of 96-well clear bottom TC plate (Corning, cat #: 3904,) were seeded at 50,000 cells/well in 180 μL of treatment medium, and 20 μL of either 10% DMSO (Sigma, cat #: D4540) as controls or a 10× solution of test compounds in 10% DMSO in treatment media was added for a final compound concentration starting at 10 μM, and plates were incubated in 5% CO2 incubator at 37° C. for 5 days.Subsequently viral load production was assayed by quantitative PCR (qPCR) of the HBV core sequence. PCR reaction mixture containing forward primers HBV-f 5′-CTGTGCCTTGGGTGGCTTT-3′ (IDT DNA), Reverse primers HBV-r 5′-[…]-3′ (IDT DNA), Fluorescent TaqMan™ Probes HBV-probe 5′-FAM/AGCTCCAAA/ZEN/[…]/3IABkFQ-3′ (IDT DNA), 10 μL/well of PerfeCTa® qPCR ToughMix® (Quanta Biosciences, Cat #: 95114-05K), and 6 μL/well of DEPC water (Alfa Aesar, cat #: J62087) was prepared. […] of supernatant was added to 16 μL of the reaction mixture in a qPCR plate (Applied Biosytems, Cat #: 4309849), sealed with a film (Applied Biosystems, Cat #: 4311971), centrifuged for a few seconds, and subsequently run on an Applied Biosystems VIIA7. The PCR mixture was incubated at 45° C. for 5 min, then 95° C. for 10 min, followed by 40 cycles of 10 seconds at 95° C. and 20 seconds at 60° C. Viral load was quantified against known HBV DNA standards by using ViiA™ 7 Software. Viral load in the supernatant from wells with treated cells were compared against viral load in supernatant from DMSO control wells (>3 per plate). Cell viability assay was performed with CellTiter-Glo Luminescent Cell Viability Assay (Promega, cat #: G7573) with modification. Mixed appropriate amount of CellTiter-Glo (CTG) 1×DPBS in a 1:1 ratio, added 100 uL of the mixture to each well followed completely removal of all supernatant in each well without touching cell surface. Incubated the plate at room temperature for 10 min on an orbital shaker, and then read the plate with a plate reader (TECAN M1000 or Envision).
# Settings: not given
Compound,EC50,pEC50
COc1ccc([C@@H]2CC[C@H](c3nn(C)c(N)c3C(=O)Nc3ccc(F)c(Cl)c3)C2)cc1,< 100 nM and in the range around 300 nM,
Cn1nc(C2CC3COC(=O)CC3C2)c(C(=O)Nc2ccc(F)c(Cl)c2)c1N (stereo unspecified),,> 7.00
Cn1nc(C2CC3CC(O)(CS(=O)(=O)NC4CC4)CC3C2)c(C(=O)Nc2ccc(F)c(Cl)c2)c1N (stereo unspecified),in the range around 300 nM and < 100 nM,
COC(=O)CC1(O)CC2CC(c3nn(C)c(N)c3C(=O)Nc3ccc(F)c(Cl)c3)CC2C1 (stereo unspecified),,> 7.00
COc1ccc([C@H]2CC[C@H](c3nn(C)c(N)c3C(=O)Nc3ccc(F)c(Cl)c3)C2)cc1,,> 7.00

# Same assay, conditions: HePAD38
Compound,pEC50,EC50
CSC1CC2CC(c3nn(C)c(N)c3C(=O)Nc3ccc(F)c(Cl)c3)CC2C1 (stereo unspecified),> 7.00,
CNC(=O)C1CC2CC(c3nn(C)c(N)c3C(=O)Nc3ccc(F)c(Cl)c3)CC2C1 (stereo unspecified),> 7.00,
Cn1cc([C@H]2CC[C@@H](c3nn(C)c(N)c3C(=O)Nc3ccc(F)c(Cl)c3)C2)cn1,> 7.00,
COc1cccc(C2CCC(c3nn(C)c(N)c3C(=O)Nc3ccc(F)c(Cl)c3)C2)c1 (stereo unspecified),> 7.00,
Cn1nc([C@@H]2CC3CC(=NO)C[C@@H]3C2)c(C(=O)Nc2ccc(F)c(Cl)c2)c1N (stereo partly specified),> 7.00,
Cn1nc([C@H]2CC3COC(=O)C[C@H]3C2)c(C(=O)Nc2ccc(F)c(Cl)c2)c1N (stereo partly specified),> 7.00,
Cn1nc(C2CC3CC(O)(C(=O)NC4CC4)CC3C2)c(C(=O)Nc2ccc(F)c(Cl)c2)c1N (stereo unspecified),,in the range around 300 nM
Cn1nc(C2CC3CC(NS(=O)(=O)C(F)(F)F)CC3C2)c(C(=O)Nc2ccc(F)c(Cl)c2)c1N (stereo unspecified),> 7.00,
Cn1nc(C2CC3CC(N4CCNC4=O)CC3C2)c(C(=O)Nc2ccc(F)c(Cl)c2)c1N (stereo unspecified),> 7.00,
Nc1[nH]nc(C2CC3CC(=O)CC3C2)c1C(=O)Nc1ccc(F)c(Cl)c1 (stereo unspecified),,in the range around 300 nM
Cn1nc([C@@H]2CC3COC(=O)C[C@@H]3C2)c(C(=O)Nc2ccc(F)c(Cl)c2)c1N (stereo partly specified),,in the range around 300 nM
Cn1nc([C@@H]2CC3COC(=O)C[C@H]3C2)c(C(=O)Nc2ccc(F)c(Cl)c2)c1N (stereo partly specified),,in the range around 300 nM
COc1cccc([C@@H]2CC[C@H](c3nn(C)c(N)c3C(=O)Nc3ccc(F)c(Cl)c3)C2)c1,> 7.00,
Cn1cc(-c2ccc([C@H]3CC[C@H](c4nn(C)c(N)c4C(=O)Nc4ccc(F)c(Cl)c4)C3)cc2)cn1,> 7.00,
CCSC1CC2CC(c3nn(C)c(N)c3C(=O)Nc3ccc(F)c(Cl)c3)CC2C1 (stereo unspecified),> 7.00,
Cn1nc(C2CC3CC(C#N)CC3C2)c(C(=O)Nc2ccc(F)c(Cl)c2)c1N (stereo unspecified),> 7.00,
Cn1nc(C2CC3CC(OCC(F)(F)F)CC3C2)c(C(=O)Nc2ccc(F)c(Cl)c2)c1N (stereo unspecified),> 7.00,
CC(=O)N1CC2CC(c3nn(C)c(N)c3C(=O)Nc3ccc(F)c(Cl)c3)CC2C1 (stereo unspecified),> 7.00,

Compound,pEC50,EC50
Cn1nc([C@H]2C[C@H](c3ccccc3)C2)c(C(=O)Nc2ccc(F)c(Cl)c2)c1N,,in the range around 300 nM
CC(=O)NC1CC2CC(c3nn(C)c(N)c3C(=O)Nc3ccc(F)c(Cl)c3)CC2C1 (stereo unspecified),> 7.00,
Cn1nc(C2CC3CC(OC(C)(C)C)CC3C2)c(C(=O)Nc2ccc(F)c(Cl)c2)c1N (stereo unspecified),> 7.00,
COC(=O)N1CC2CC(c3nn(C)c(N)c3C(=O)Nc3ccc(F)c(Cl)c3)CC2C1 (stereo unspecified),> 7.00,
Cn1nc(C2CC3CC(CCO)CC3C2)c(C(=O)Nc2ccc(F)c(Cl)c2)c1N (stereo unspecified),> 7.00,
CC(C)S(=O)(=O)N1CC2CC(c3nn(C)c(N)c3C(=O)Nc3ccc(F)c(Cl)c3)CC2C1 (stereo unspecified),> 7.00,
Cn1nc(C2CC3CC(N4CCCS4(=O)=O)CC3C2)c(C(=O)Nc2ccc(F)c(Cl)c2)c1N (stereo unspecified),> 7.00,
Cn1cc(C2CC3CC(c4nn(C)c(N)c4C(=O)Nc4ccc(F)c(Cl)c4)CC3C2)cn1 (stereo unspecified),> 7.00,
CNC(=O)N1CC2CC(c3nn(C)c(N)c3C(=O)Nc3ccc(F)c(Cl)c3)CC2C1 (stereo unspecified),> 7.00,
Cn1nc(C2CCN(c3ccccc3)C2)c(C(=O)Nc2ccc(F)c(Cl)c2)c1N (stereo unspecified),,in the range around 300 nM
Cn1nc(C2CC3CC([S+](C)[O-])CC3C2)c(C(=O)Nc2ccc(F)c(Cl)c2)c1N (stereo unspecified),> 7.00,
Cn1nc(C2CC3CC(S(C)(=O)=O)CC3C2)c(C(=O)Nc2ccc(F)c(Cl)c2)c1N (stereo unspecified),> 7.00,
Cn1nc(C2CC3CC(N4CCOC4=O)CC3C2)c(C(=O)Nc2ccc(F)c(Cl)c2)c1N (stereo unspecified),> 7.00,
Cn1nc(C2CC3COC(=O)CC3C2)c(C(=O)Nc2ccc(F)c(Cl)c2)c1N (stereo unspecified),> 7.00,
Cn1nc(C2CC3CN(S(C)(=O)=O)CC3C2)c(C(=O)Nc2ccc(F)c(Cl)c2)c1N (stereo unspecified),> 7.00,
Cn1nc([C@@H]2CC[C@@H](c3ccccc3)C2)c(C(=O)Nc2ccc(F)c(Cl)c2)c1N,> 7.00,
COC(=O)CC1(O)CC2CC(c3nn(C)c(N)c3C(=O)Nc3ccc(F)c(Cl)c3)CC2C1 (stereo unspecified),> 7.00,
COc1ccc([C@H]2CC[C@H](c3nn(C)c(N)c3C(=O)Nc3ccc(F)c(Cl)c3)C2)cc1,> 7.00,
